Laboratory results as given in ChEMBL document CHEMBL6182948 (J Med Chem, 2025).

Experiments:
[1] = target: T1, Cytochrome P450 1B1 (Homo sapiens, UniProt Q16678); test: Inhibition of human recombinant CYP1B1 using 7-ethoxyresorufin as substrate incubated under dark condition for 30 mins in presence of NADPH by EROD fluorescence assay; format: ADME
T1 sequence (Q16678 whole entry): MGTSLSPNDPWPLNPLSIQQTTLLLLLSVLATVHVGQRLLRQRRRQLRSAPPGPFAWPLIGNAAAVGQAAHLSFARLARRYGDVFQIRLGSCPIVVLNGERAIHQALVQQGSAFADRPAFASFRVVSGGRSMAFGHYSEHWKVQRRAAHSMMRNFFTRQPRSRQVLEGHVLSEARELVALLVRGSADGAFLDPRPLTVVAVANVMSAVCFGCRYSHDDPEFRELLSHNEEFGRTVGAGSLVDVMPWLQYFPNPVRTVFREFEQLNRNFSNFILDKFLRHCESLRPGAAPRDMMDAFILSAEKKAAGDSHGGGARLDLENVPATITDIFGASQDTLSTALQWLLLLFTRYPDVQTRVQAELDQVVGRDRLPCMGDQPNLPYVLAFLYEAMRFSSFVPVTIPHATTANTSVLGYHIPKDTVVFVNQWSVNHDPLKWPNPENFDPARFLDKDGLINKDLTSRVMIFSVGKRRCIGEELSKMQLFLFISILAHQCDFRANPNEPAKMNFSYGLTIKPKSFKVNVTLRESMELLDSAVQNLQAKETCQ

[2] = target: T2, CYP1B1 (Homo sapiens, UniProt Q16678); test: Inhibition of human recombinant CYP1B1 using 7-ethoxyresorufin as substrate at 100 uM incubated under dark condition for 30 mins in presence of NADPH by EROD fluorescence assay relative to control; format: ADME; conditions: recombinant CYP1B1, probe 7-ethoxyresorufin
T2 sequence (Q16678 whole entry): T1 sequence (Q16678 whole entry)

[3] = organism: Homo sapiens; test: Selectivity index, ratio of IC50 for human recombinant CYP1A2 to IC50 for human recombinant CYP1B1 using 7-ethoxyresorufin as substrate
[4] = target: T3, Cytochrome P450 1A2 (Homo sapiens, UniProt P05177); test: Inhibition of human recombinant CYP1A2 using 7-ethoxyresorufin as substrate incubated under dark condition for 45 mins in presence of NADPH by EROD fluorescence assay; format: ADME
T3 sequence (P05177 whole entry): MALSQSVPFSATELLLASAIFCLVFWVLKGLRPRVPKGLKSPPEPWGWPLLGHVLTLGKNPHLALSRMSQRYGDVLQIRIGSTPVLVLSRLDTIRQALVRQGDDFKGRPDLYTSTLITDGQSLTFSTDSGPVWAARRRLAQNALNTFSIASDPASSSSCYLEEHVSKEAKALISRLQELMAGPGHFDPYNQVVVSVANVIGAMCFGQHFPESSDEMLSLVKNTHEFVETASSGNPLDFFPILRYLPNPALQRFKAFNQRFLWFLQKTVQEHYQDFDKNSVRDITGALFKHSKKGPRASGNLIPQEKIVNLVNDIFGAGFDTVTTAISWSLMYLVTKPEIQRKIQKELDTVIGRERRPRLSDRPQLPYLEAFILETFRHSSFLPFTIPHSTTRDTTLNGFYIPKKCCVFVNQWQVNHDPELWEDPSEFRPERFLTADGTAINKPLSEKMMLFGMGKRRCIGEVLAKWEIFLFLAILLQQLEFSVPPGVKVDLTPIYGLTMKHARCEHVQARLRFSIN

[5] = target: T4, Cytochrome P450 1A1 (Homo sapiens, UniProt P04798); test: Inhibition of human recombinant CYP1A1 using 7-ethoxyresorufin as substrate incubated under dark condition for 15 mins in presence of NADPH by EROD fluorescence assay; format: ADME
T4 sequence (P04798 whole entry): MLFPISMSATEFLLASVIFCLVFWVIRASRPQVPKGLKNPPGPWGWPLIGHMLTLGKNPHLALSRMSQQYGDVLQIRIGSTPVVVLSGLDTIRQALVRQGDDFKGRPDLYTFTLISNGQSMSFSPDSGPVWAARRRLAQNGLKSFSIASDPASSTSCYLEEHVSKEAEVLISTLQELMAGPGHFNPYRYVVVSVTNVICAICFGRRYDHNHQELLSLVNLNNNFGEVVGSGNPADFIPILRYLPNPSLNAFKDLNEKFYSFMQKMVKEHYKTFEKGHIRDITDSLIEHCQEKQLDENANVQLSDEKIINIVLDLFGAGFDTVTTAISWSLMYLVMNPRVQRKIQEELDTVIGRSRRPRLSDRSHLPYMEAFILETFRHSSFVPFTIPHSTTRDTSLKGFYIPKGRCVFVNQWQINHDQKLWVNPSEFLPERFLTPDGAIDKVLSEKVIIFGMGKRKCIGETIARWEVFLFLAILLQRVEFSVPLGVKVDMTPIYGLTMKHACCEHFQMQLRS

[6] = organism: Homo sapiens; test: Selectivity index, ratio of IC50 for human recombinant CYP1A1 to IC50 for human recombinant CYP1B1 using 7-ethoxyresorufin as substrate

Compound | IC50 [1] | inhibition at 0.5 h, 100 µM [2] | Ratio IC50 [3] | IC50 [4] | IC50 [5] | Ratio IC50 [6]
COc1cc(NC(=O)c2nc(-c3ccccc3)cs2)cc(OC)c1 | 4.65 nM | 87.4% | 156 | 724 nM | 621 nM | 134
Cc1sc(C(=O)Nc2ccc(C(F)(F)F)cc2)nc1-c1cccc(Cl)c1 | 1.88 nM |  | > 5320 | > 10000 nM | 135 nM | 71.8
O=C(Nc1cc(Cl)cc(Cl)c1)c1nc(-c2cncc(Cl)c2)cs1 | 1.77 nM |  | 5.5 | 9.7 nM | 11.5 nM | 6.5
N#Cc1ccc(-c2csc(C(=O)Nc3cc(Cl)cc(Cl)c3)n2)cn1 | 11.5 nM |  | 481 | 5550 nM | 72 nM | 6.2
COc1cc(NC(=O)c2nc(-c3ccccc3F)cs2)cc(OC)c1 | 16.6 nM |  | 86.5 | 1440 nM | 358 nM | 21.5
Cc1sc(C(=O)Nc2ccc(OC(F)F)cc2)nc1-c1cccc(Cl)c1 | 3.07 nM |  | > 32600 | > 100000 nM | 128 nM | 41.7
O=C(Nc1ccc(OC(F)F)cc1)c1nc(-c2ccc(Cl)cc2)cs1 | 0.9 nM |  | 368 | 330 nM | 58.3 nM | 65.1
O=C(Nc1cc(Cl)cc(Cl)c1)c1nc(-c2ccccc2Cl)cs1 | 7.95 nM |  | 67.6 | 537 nM | 203 nM | 25.6
COc1cc(NC(=O)c2nc(-c3ccccc3)cs2)cc(OC)c1OC |  | 62.8% |  |  |  | 
Cc1ccccc1-c1csc(C(=O)Nc2cc(Cl)cc(Cl)c2)n1 | 62 nM |  | 9.7 | 601 nM | 266 nM | 4.3
O=C(Nc1cc(Cl)cc(Cl)c1)c1nc(-c2ccc(-c3ccccc3)cc2)cs1 | 1950 nM |  | 6.5 | 12700 nM | 9310 nM | 4.8
N#Cc1cccc(-c2csc(C(=O)Nc3ccc(C(F)(F)F)cc3)n2)c1 | 2.93 nM |  | > 34100 | > 100000 nM | 21.4 nM | 7.3
NC(=O)c1cccc(-c2csc(C(=O)Nc3ccc(C(F)(F)F)cc3)n2)c1 | 2.18 nM |  | 2640 | 5770 nM | 44.2 nM | 20.2
O=C(Nc1cc(Cl)cc(Cl)c1)c1nc(-c2ccc(Cl)cc2)cs1 | 1.45 nM |  | 912 | 1330 nM | 386 nM | 266
N#Cc1ccc(-c2csc(C(=O)Nc3ccc(OC(F)F)cc3)n2)cc1 | 0.99 nM |  | > 101000 | > 100000 nM | 113 nM | 114
Cc1sc(C(=O)Nc2ccc(OC(F)F)cc2)nc1-c1cccc(F)c1 | 3.04 nM |  | 889 | 2700 nM | 188 nM | 61.9
Cc1sc(C(=O)Nc2cc(Cl)cc(Cl)c2)nc1-c1cccc(F)c1 | 0.88 nM |  | 1600 | 1410 nM | 122 nM | 138
COc1cc(NC(=O)c2nc(-c3cccc(F)c3)cs2)cc(OC)c1 | 7.29 nM |  | 993 | 7240 nM | 474 nM | 65.1
Cc1cccc(-c2csc(C(=O)Nc3cc(Cl)cc(Cl)c3)n2)c1 | 43.7 nM |  | > 229 | > 10000 nM | 2330 nM | 53.4

The next lines start with the values.

IC50 [1] | inhibition at 0.5 h, 100 µM [2] | Ratio IC50 [3] | IC50 [4] | IC50 [5] | Ratio IC50 [6] | Compound
0.4 nM | 100% | 377 | 151 nM | 164 nM | 410 | O=C(Nc1ccc(I)cc1)c1nc(-c2ccccc2)cs1
 | 20.5% |  |  |  |  | O=C(Nc1ccc(N2CCOCC2)cc1)c1nc(-c2ccccc2)cs1
2.39 nM | 99.9% | 447 | 1070 nM | 1720 nM | 721 | O=C(Nc1ccc(C(F)F)cc1)c1nc(-c2ccccc2)cs1
10.1 nM | 96.2% | 8 | 80.9 nM | 208 nM | 20.5 | O=C(Nc1cc(Cl)ccc1Cl)c1nc(-c2ccccc2)cs1
37 nM | 94.2% | 27.1 | 1000 nM | 977 nM | 26.4 | Cc1ccc(NC(=O)c2nc(-c3ccccc3)cs2)cc1
 | 69.6% |  |  |  |  | O=C(Nc1ccccc1F)c1nc(-c2ccccc2)cs1
 | 8.7% |  |  |  |  | O=C(Nc1ccc(N2CCNCC2)cc1)c1nc(-c2ccccc2)cs1
 | 77.4% |  |  |  |  | O=C(Nc1cccc(Cl)c1)c1nc(-c2ccccc2)cs1
3.36 nM | 102% | 212 | 712 nM | 223 nM | 66.2 | O=C(Nc1cc(Cl)cc(Cl)c1)c1nc(-c2ccccc2)cs1
22 nM | 91.2% | 27.8 | 611 nM | 404 nM | 18.4 | COc1ccc(OC)c(NC(=O)c2nc(-c3ccccc3)cs2)c1
1.18 nM | 102% | 327 | 386 nM | 213 nM | 180 | O=C(Nc1ccc(Cl)cc1)c1nc(-c2ccccc2)cs1
0.47 nM | 99.5% | 952 | 450 nM | 450 nM | 951 | O=C(Nc1ccc(C(F)(F)F)cc1)c1nc(-c2ccccc2)cs1
1.49 nM | 102% | 1.6 | 2.4 nM | 10.8 nM | 7.2 | O=C(Nc1ccc(-n2ccnc2)cc1)c1nc(-c2ccccc2)cs1
 | 21.2% |  |  |  |  | O=C(Nc1ccc(-c2ccccc2)cc1)c1nc(-c2ccccc2)cs1
3.57 nM | 102% | 137 | 488 nM | 251 nM | 70.3 | O=C(Nc1ccc(Cl)cc1Cl)c1nc(-c2ccccc2)cs1
17.3 nM | 96.5% | 35.9 | 619 nM | 230 nM | 13.3 | COc1cc(Cl)cc(NC(=O)c2nc(-c3ccccc3)cs2)c1
2.23 nM |  | 63.6 | 142 nM | 197 nM | 88.3 | O=C(Nc1ccc(Cl)cc1Cl)c1nc(-c2ccccc2F)cs1
25.2 nM | 89.3% |  | 438 nM | 785 nM | 31.1 | COc1ccc(NC(=O)c2nc(-c3ccccc3)cs2)c(OC)c1
 | 54.6% |  |  |  |  | NC(=O)c1ccc(NC(=O)c2nc(-c3ccccc3)cs2)cc1
